Measured values taken from patent US9227979B2, “Fluorescent antagonists of the A3 adenosine receptor” (The United States of America, as represented by the …, priority 2012, dated 2016).
Counter-ions that a name gives are not always drawn. Like-named read-outs stand apart in the source and are kept apart here. Each block holds one compound with its values, some of them ahead of it.

What was measured:
hA3AR [1] = molecular target: T1, hA3AR (Homo sapiens (Human), UniProt P0DMS8); experiment: FCM competitive binding in whole CHO cells using MRS5449 as tracer; settings: whole CHO cells expressing hA3AR; 5 nM MRS5449 tracer; 90 min at 37° C.
Procedure: Total binding was measured in the absence of the competitor.
(§1) At the end of each time interval, the medium was removed and cells were washed three times with ice-cold DPBS. After washing, 1 ml 0.2% EDTA solution was added to each well, and cells were incubated at 37° C. for 7 min. Following cell detachment, 1 ml medium was added to each well to neutralize the EDTA. The cell suspensions were transferred to polystyrene round-bottom BD Falcon tubes (BD, Franklin Lakes, N.J.) and centrifuged for 5 min at 23° C. and 400×g. After centrifugation, the supernatant was discarded, and cells were washed with 3 ml PBS and centrifuged again at 23° C. and 400×g for 5 min. After discarding the supernatant, cells were suspended in 0.5 ml PBS and analyzed by FCM.
The intensity of fluorescence emission of each sample was measured by using FCM. […] Samples were maintained in the dark during the analysis to avoid photobleaching. MFIs were obtained in the FL-1 channel in log mode. Ten thousand events were analyzed per sample.
Data analysis was performed with the Prism 5 (GraphPad, San Diego Calif.) software. The mean autofluorescence of CHO cells was measured in the absence of the fluorescent ligand.

hA3AR [2] = molecular target: T1, hA3AR; settings: Table 2; cell membrane preparations using [125I]-AB-MECA; reported literature values; read-out: hA3AR radioligand binding, Ki; cited from earlier work
hA1 AR = hA1 AR (Homo sapiens (Human), UniProt P30542); experiment: Radioligand membrane binding assay at hA1 AR ([3H]R-PIA); settings: Table 1; CHO cells expressing hA1AR; agonist radioligand [3H]R-PIA; read-out: A1 Ki
Procedure: (§2) For cell cultures used in radioligand binding assays, after harvest and homogenization, the cells were centrifuged at 200×g for 10 min, and the pellet was re-suspended in 50 mM Tris-HCl buffer (pH 7.5), containing 10 mM MgCl2. The suspension was homogenized with an electric homogenizer for 10 s and was then re-centrifuged at 20,000×g for 20 min at 4° C. The resultant membrane pellets were resuspended in buffer in the presence of 3 units/ml adenosine deaminase, and the suspension was stored at −80° C. until the binding experiments. The protein concentration was measured using the Bradford assay. Radioligand membrane binding assays

hA2AAR = hA2AAR (Homo sapiens (Human), UniProt P29274); experiment: Radioligand membrane binding assay at hA2A AR ([3H]CGS21680); settings: Table 1; HEK293 cells expressing hA2AAR; [3H]CGS21680; read-out: A2A Ki
Procedure: as §2

hA3AR [3] = molecular target: T1, hA3AR; experiment: Radioligand membrane binding assay at hA3AR ([125I]I-AB-MECA)
Procedure: as §2

A3AR = A3AR (Homo sapiens (Human), UniProt P0DMS8); experiment: Cyclic AMP accumulation assay, antagonism of Cl-IB-MECA (Schild analysis); type: cell-based; settings: inhibition of forskolin-stimulated cyclic AMP by Cl-IB-MECA in CHO cells expressing the A3AR
Procedure: CHO cells stably expressing the hA3AR were seeded in 24-well plates and incubated at 37° C. overnight. The medium was removed the following day and replaced with DMEM containing 50 mM HEPES, 10 μM rolipram, 3 units/ml adenosine deaminase (Worthington Biochemical Corp., Lakewood, N.J.), and increasing concentrations of agonists and incubated for […]. Forskolin (10 μM) was added and incubated for an additional 15 min. The medium was removed, and the cells were lysed with 200 μL of 0.1 M HCl. 100 μl of the HCl solution was used in the Sigma Direct cAMP Enzyme Immunoassay following the instructions provided with the kit. The OD values were measured with a SpectraMax M5 Microplate reader (Molecular Devices, Sunnyvale, Calif.) at 405 nm.

hA3AR [4] = molecular target: T1, hA3AR; experiment: Fluorescent ligand binding by FCM in intact CHO cells expressing the hA3AR (preliminary, saturation, kinetics)
Procedure: In preliminary binding experiments of compounds 1-6 and MRS5449 were incubated with CHO cells expressing the hA3AR for 1 h at 37° C. in an atmosphere containing 5% CO2. The concentrations used were incubated with 1.5 μM 1, 5 μM 2, 1.5 μM 3, 10 μM 4, 20 μM 5, 15 μM 6, or 10 nM MRS5449. For further binding experiments with MRS5449, control CHO cells (CHO cells without heterologous receptor expression) and CHO cells expressing hA3AR were incubated with 10 nM MRS5449 for 3 h.
In saturation binding experiments, CHO cells expressing the hA3AR were incubated with concentrations of MRS5449 ranging from 2.5 nM to 250 nM for 1 h. To study binding kinetics of MRS5449, CHO cells expressing the hA3AR were incubated with 10 nM MRS5449 for different time intervals from 5 min to 3 h. The association and dissociation rate was measured as follows: 10 nM MRS5449 was added to CHO cells expressing the A3AR and measured total binding at different time intervals. After 90 min, dissociation was initiated by adding 10 μM of non-fluorescent A3AR antagonist MRS1220 and then measured the dissociation at different time intervals.
as §1
The mean fluorescence intensity (MFI) values of the standard particles were recorded under optimized instrument setting and converted into MESF values using the QuickCal program v. 2.3 (Bangs Laboratories, Inc., Fishers, Ind.). MFIs of receptor-bound fluorescent small molecules in this study were measured under exactly the same conditions and the assigned MESF values were extrapolated from the calibration curve.
(§3) The intensity of fluorescence emission of each sample was measured by using FCM. Cell suspensions were vortexed briefly before analysis on a Becton and Dickinson FACSCalibur flow cytometer (BD, Franklin Lakes, N.J.) with excitation at 488 nm. Samples were maintained in the dark during the analysis to avoid photobleaching. MFIs were obtained in the FL-1 channel in log mode. Ten thousand events were analyzed per sample. Data were collected using Cell Quest Pro software (BD, Franklin Lakes, N.J.) and analyzed by Cyflogic v. 1.2.1 software (CyFlo, Ltd., Turku, Finland).
Data analysis was performed with the Prism 5 (GraphPad, San Diego Calif.) software. The mean autofluorescence of CHO cells was measured in the absence of the fluorescent ligand. The mean fluorescence in the presence of fluorescent ligand was corrected by subtracting this value; Wood, J C S, Curr Protoc Cytom 2009; 1.4.1-1.4.14.

A1AR = A1AR (Homo sapiens (Human), UniProt P30542); experiment: FCM binding of fluorescent ligand to CHO cells expressing the A1AR
Procedure: (§4) Chinese hamster ovary (CHO) cells without heterologous AR expression were grown in DMEM/F12 (1:1) medium with 10% FBS, 2 mM L-glutamine, 50 U/ml penicillin/streptomycin. CHO cells expressing the A1 or A3 AR and HEK293 cells expressing the A2A AR were grown in the same medium but in the presence of 500 μg/ml hygromycin B and 800 μg/ml of G418, respectively. Cells, used for FCM analysis, were grown in 6-well plates (approximately 400,000 cells/well) and incubated at 37° C. for 24 h in the presence of 5% CO2. When confluency of the cells was reached 80% (approximately 10^6 cells/well), medium was replaced with fresh medium and MRS5449 was added in the presence or absence of competitive antagonists, and cells were processed for FCM.
as §3

A2AAR = A2AAR (Homo sapiens (Human), UniProt P29274); experiment: FCM binding of fluorescent ligand to HEK cells expressing the A2AAR
Procedure: as §4, §3

T1 sequence (P0DMS8 whole entry): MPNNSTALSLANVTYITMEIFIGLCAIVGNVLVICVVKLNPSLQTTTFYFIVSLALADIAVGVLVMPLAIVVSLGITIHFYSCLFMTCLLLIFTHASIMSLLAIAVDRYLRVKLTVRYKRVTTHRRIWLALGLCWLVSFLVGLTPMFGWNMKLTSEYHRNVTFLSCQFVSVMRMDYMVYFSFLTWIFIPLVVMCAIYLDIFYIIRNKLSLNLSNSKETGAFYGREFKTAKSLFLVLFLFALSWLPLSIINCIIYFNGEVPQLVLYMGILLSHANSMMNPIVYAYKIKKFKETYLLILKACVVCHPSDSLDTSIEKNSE
Sequence of A2AAR (P29274 whole entry): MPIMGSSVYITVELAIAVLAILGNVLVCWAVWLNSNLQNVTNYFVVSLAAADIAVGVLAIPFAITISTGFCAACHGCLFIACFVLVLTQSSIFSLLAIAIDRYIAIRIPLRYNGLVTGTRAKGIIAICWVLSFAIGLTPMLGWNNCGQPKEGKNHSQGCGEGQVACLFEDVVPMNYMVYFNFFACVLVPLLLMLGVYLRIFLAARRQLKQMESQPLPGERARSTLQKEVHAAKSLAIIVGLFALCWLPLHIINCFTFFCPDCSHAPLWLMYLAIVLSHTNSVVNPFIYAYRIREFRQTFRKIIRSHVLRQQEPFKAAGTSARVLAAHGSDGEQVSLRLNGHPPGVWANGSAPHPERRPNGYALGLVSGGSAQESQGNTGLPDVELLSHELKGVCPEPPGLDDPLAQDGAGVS
Sequence of hA2AAR (P29274 whole entry): as above
Sequence of hA1 AR (P30542 whole entry): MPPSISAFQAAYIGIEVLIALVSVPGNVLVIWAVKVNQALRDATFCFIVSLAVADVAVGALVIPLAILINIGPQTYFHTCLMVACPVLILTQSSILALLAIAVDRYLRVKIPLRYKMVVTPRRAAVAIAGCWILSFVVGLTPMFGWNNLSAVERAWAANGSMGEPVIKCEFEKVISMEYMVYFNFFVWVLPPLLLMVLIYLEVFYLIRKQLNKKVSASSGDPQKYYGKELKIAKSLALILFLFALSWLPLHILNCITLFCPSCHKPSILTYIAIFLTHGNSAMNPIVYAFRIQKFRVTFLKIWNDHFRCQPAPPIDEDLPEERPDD
Sequence of A1AR (P30542 whole entry): as above
Sequence of A3AR (P0DMS8 whole entry): as the sequence (P0DMS8 whole entry) above

- Ki (hA3AR [1]): 9.54 ± 2.2 nM
Compound: CCC1CN2C(=O)N(C)c3nc(-c4cc(Cl)cc(Cl)c4Cl)[nH]c3C2=N1 (centres unmarked) [PSB-10, 8-ethyl-1,4,7,8-tetrahydro-4-methyl-2-(2,3,5-trichlorophenyl)-5H-imidazo[2,1-i]purin-5-one monohydrochloride]
- Ki (hA3AR [2]): 0.441 nM

Compound: 2-(6-Amino-3-iminio-4,5-disulfonato-3H-xanthen-9-yl)-5-((6-(4-(4-((9-chloro-2-(furan-2-yl)-[1,2,4]triazolo[1,5-c]quinazolin-5-yl)amino)-4-oxobutyl)-1H-1,2,3-triazol-1-yl)hexyl)carbamoyl)benzoate [Compound 9]
- Ki (hA1 AR): 87 nM
- Ki (hA2AAR): 73 nM
- Ki (hA3AR [3]; Table 1, CHO cells expressing hA3AR, [125I]I-AB-MECA, read-out: A3 Ki): 6.4 nM
- selectivity for the A3AR (hA3AR [3]; versus hA1 and hA2AARs, radioligand binding Ki): over 10 fold
- Kb (A3AR): 4.8 nM
- t1/2 for association (hA3AR [4]; 10 nM MRS5449, CHO cells expressing hA3AR): 53 min
- Kd determined through association and dissociation kinetic experiments (hA3AR [4]; 10 nM MRS5449, dissociation initiated after 90 min with 10 μM MRS1220): 6.65 ± 0.55 nM
- Nonspecific binding, % of total binding (hA3AR [4]; 10 nM MRS5449, with 10 μM MRS1220 or 10 μM Cl-IB-MECA or in control CHO cells): less than 1%
- Kd (hA3AR [4]; FCM saturation binding, […] to 250 nM, nonspecific with 10 μM MRS1220, read-out: Kd (equilibrium binding constant, saturation binding)): 5.15 ± 1.11 nM
- fluorescence emission (MFI) of cell-bound ligand (hA3AR [4]; preliminary FCM experiments, hA3AR CHO cells, 1 h at 37° C., concentration about two times Ki): sufficiently high MFI
- binding to CHO cells expressing the A1AR compared with binding to the A3AR (expressed as 100%) (A1AR): 0.3%
- binding to HEK cells expressing the A2AAR compared with binding to the A3AR (expressed as 100%) (A2AAR): 0.5%
